Tested on: normal, non-HF ovine model
Assay: Right ventricle vs left ventricle contractility after a change, pressure max(dP/dt) as surrogate, heartbeat-by-heartbeat correlation
Assay type: in vivo
Conditions: max(dP/dt) as surrogate for contractility, calcium at 5 mL
Description: The correlation was a heartbeat-by-heartbeat analysis. Pressure measurements, taken by a Millar catheter comprising a MEMS pressure sensor, in units of max(dP/dt) was used as a surrogate for contractility.
The first change, a dobutamine injection, provided a very high contractility increase greater than 500%. The average correlation between right ventricle contractility and left ventricle contractility was very good at 0.91, where 1.00 is a perfect correlation. Accordingly, if a subject is given a dobutamine injection, measuring changes to right ventricle contractility can provide accurate information about changes to left ventricle contractility. The first change was repeated three times.
The second change, calcium injection at 5 mL, provided a contractility increase of about 20%. […] The average correlation between right ventricle contractility and left ventricle contractility using a Millar (MEMS) sensor on a catheter was very good at 0.91. The average correlation between right ventricle contractility and left ventricle contractility using a fluid-filled lumen of a Swan-Ganz catheter in communication with an external pressure sensor was also very good at 0.87. […]

## calcium [Calcium Injection]
  Contractility % Increase: ~20%
Listed as calcium injection
  Contractility % Increase: about 20%

Reference: patent US12527519B2, “Neurostimulation devices and methods” (Cardionomix, Inc., priority 2016, dated 2026)
